19 compounds from patent US20260258048A1, “LACTAM-CONTAINING IMIDAZOPYRIDAZINE IL-17 INHIBITOR COMPOUNDS” (Janssen Pharmaceutica NV, priority 2023, published 2026) can be followed below.

A word on the pIC50: it is −log10 of the IC50, conventionally taken in molar units. Low values mean a high IC50, high ones a low IC50.

Assay [1] addresses IL-17A(FLAG-tagged): IL-17RA(His-tagged) (Homo sapiens, UniProt Q16552, K93Q). The assay is described as follows: IL-17A(FLAG-tagged): IL-17RA(His-tagged) binding disruption Eu-HTRF assay. The conditions noted are these: class of the average IC50 where tested more than once. The method, boiled down: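 Compound (22-point, 2-fold series) was pre-incubated 1 h at rt with FLAG-IL-17A, added as a 2× solution (1 μM). A 2× mix of C-terminal 10×His IL-17RA, Eu-anti-FLAG donor and D2-anti-His acceptor in PBS/0.01% Triton X-100/200 mM KF was then added for 2 h at rt. The 665/615 nm ratio was fitted to one-site competition for IC50.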
For orientation: TR-FRET usually uses a lanthanide donor and a delayed reading to cut background.

The test system of assay [2] is IL-17A-induced G-CSF production in human normal keratinocyte (NHK). Kind of assay: NHK assay: IL-17A-induced G-CSF production in normal human keratinocytes. Format: cell-based. The conditions noted are these: 24 h, IL-17A 5 ng/mL, class of the average IC50 where tested more than once. In outline: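 Adult keratinocytes at 3000-4000 cells/well; recombinant human IL-17A pre-incubated 1 h at rt with titrated compound, then added to cells (final 5 ng/mL IL-17A, 0.2% DMSO, 5% FBS) for 24 h at 37 °C. Supernatant G-CSF quantified by HTRF against a standard curve to give IC50; viability checked by CellTiter-Glo versus DMSO.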

pIC50: −log10 of the molar value.

Sequence of UniProt Q16552 (Q16552 with tags, fused parts or gaps K93Q): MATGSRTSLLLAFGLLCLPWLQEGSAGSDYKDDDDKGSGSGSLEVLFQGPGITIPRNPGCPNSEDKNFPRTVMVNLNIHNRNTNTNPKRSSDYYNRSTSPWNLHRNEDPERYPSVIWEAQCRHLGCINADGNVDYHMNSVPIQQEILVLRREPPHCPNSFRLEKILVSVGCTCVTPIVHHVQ

On to `CC[C@@H](c1cnn2cc([C@@H](NC(=O)c3nonc3C3CC3)C3CCC(F)(F)CC3)nc2c1)[C@@H]1C[C@@H](C(F)(F)F)NC1=O` (single isomer, unassigned) [Example 19], for which the pIC50 was over 6.40 in assay [1] and over 6.40 in assay [2] (Homo sapiens, Keratinocyte).

With `Cc1nonc1C(=O)N[C@H](c1cn2ncc(C[C@H]3CC[C@H](C(F)(F)F)NC3=O)cc2n1)C1CCC(F)(F)CC1` (relative stereo) [Example 46, N—((S)-(4,4-difluorocyclohexyl)(7-(((3R*,6R*)-2-oxo-6-(trifluoromethyl)piperidin-3-yl)methyl)imidazo[1,2-b]pyridazin-2-yl)methyl)-4-methyl-1,2,5-oxadiazole-3-carboxamide], the pIC50 was under 5.40 in assay [1] and under 5.40 in assay [2] (Homo sapiens, Keratinocyte).

Take `Cc1nonc1C(=O)N[C@H](c1cn2ncc(C[C@@H]3CC[C@H](C(F)(F)F)NC3=O)cc2n1)C1CCC(F)(F)CC1` (relative stereo) [Example 48, N—((S)-(4,4-difluorocyclohexyl)7-(((3S*,6R*)-2-oxo-6-(trifluoromethyl)piperidin-3-yl)methyl)imidazo[1,2-b]pyridazin-2-yl)methyl)-4-methyl-1,2,5-oxadiazole-3-carboxamide]: the pIC50 is under 5.40 in assay [1] and under 5.40 in assay [2] (Homo sapiens, Keratinocyte).

With `O=C(N[C@H](c1cn2ncc([C@H](O)[C@@H]3C[C@H](C(F)(F)F)NC3=O)cc2n1)C1CCC(F)(F)CC1)c1nonc1C1CC1` (relative stereo) [Example 64, 4-Cyclopropyl-N—((S)-(4,4-difluorocyclohexyl)(7-((R*)-hydroxy((3S*,5R*)-2-oxo-5-(trifluoromethyl)pyrrolidin-3-yl)methyl)imidazo[1,2-b]pyridazin-2-yl)methyl)-1,2,5-oxadiazole-3-carboxamide], the pIC50 in assay [1] was 5.40 to 6.40; in assay [2] (Homo sapiens, Keratinocyte), over 6.40.

Take `CC1(C)CNC(=O)C1Cc1cnn2cc([C@@H](NC(=O)c3nonc3C3CC3)C3CCC(F)(F)CC3)nc2c1` (single isomer, unassigned) [Example 16, 4-Cyclopropyl-N—[(S)-(4,4-difluorocyclohexyl)-[7-[[(3S*)-4,4-dimethyl-2-oxo-pyrrolidin-3-yl]methyl]imidazo[1,2-b]pyridazin-2-yl]methyl]-1,2,5-oxadiazole-3-carboxamide]: the pIC50 in assay [1] was 5.40 to 6.40; in assay [2], under 5.40.

Regarding `O=C(N[C@H](c1cn2ncc(CC3CCCCNC3=O)cc2n1)C1CCC(F)(F)CC1)c1nonc1C1CC1` (single isomer, unassigned) [Example 26, 4-Cyclopropyl-N—((S)-(4,4-difluorocyclohexyl)(7-(((S*)-2-oxoazepan-3-yl)methyl)imidazo[1,2-b]pyridazin-2-yl)methyl)-1,2,5-oxadiazole-3-carboxamide], the results for the pIC50 in assay [1] and in assay [2] were 5.40 to 6.40 and under 5.40, respectively.

On to `C[C@@]1(C(F)(F)F)CC(Cc2cnn3cc([C@@H](NC(=O)c4nonc4C4CC4)C4CCC(F)(F)CC4)nc3c2)C(=O)N1` (single isomer, unassigned) [Example 56, 4-Cyclopropyl-N—((S)-(4,4-difluorocyclohexyl)(7-(((3R*,5S)-5-methyl-2-oxo-5-(trifluoromethyl)pyrrolidin-3-yl)methyl)imidazo[1,2-b]pyridazin-2-yl)methyl)-1,2,5-oxadiazole-3-carboxamide], for which the pIC50 in assay [1] and in assay [2] was 5.40 to 6.40 in each case.

For the compound `O=C(N[C@H](c1cn2ncc(CC3CC(F)(F)CNC3=O)cc2n1)C1CCC(F)(F)CC1)c1nonc1C1CC1` (single isomer, unassigned) [Example 1, 4-Cyclopropyl-N—((S)-(7-(((R*)-5,5-difluoro-2-oxopiperidin-3-yl)methyl)imidazo[1,2-b]pyridazin-2-yl)(4,4-difluorocyclohexyl)methyl)-1,2,5-oxadiazole-3-carboxamide], the pIC50 in assay [1] and in assay [2] was over 6.40 each time.

`O=C(N[C@H](c1cn2ncc(C[C@@]34CC[C@H](C3)NC4=O)cc2n1)C1CCC(F)(F)CC1)c1nonc1C1CC1` (single isomer, unassigned) [Example 17]: the pIC50 was 5.40 to 6.40 in assay [1] and under 5.40 in assay [2] (Homo sapiens, Keratinocyte).

In the case of `O=C(N[C@H](c1cn2ncc(C(O)C3CC(C(F)(F)F)NC3=O)cc2n1)C1CCC(F)(F)CC1)c1nonc1C1CC1` (stereo partly drawn) [Example 61, 4-Cyclopropyl-N—[(S)-(4,4-difluorocyclohexyl)-[7-[hydroxy-[2-oxo-5-(trifluoromethyl)pyrrolidin-3-yl]methyl]imidazo[1,2-b]pyridazin-2-yl]methyl]-1,2,5-oxadiazole-3-carboxamide], the pIC50 was 5.40 to 6.40 in assay [1] and over 6.40 in assay [2] (Homo sapiens, Keratinocyte).

Take `CC[C@@H](c1cnn2cc([C@@H](NC(=O)c3nonc3C3CC3)C3CCC(F)(F)CC3)nc2c1)[C@@H]1C[C@@H](C(F)(F)F)NC1=O` (relative stereo) [Example 20, 4-Cyclopropyl-N—((S)-(4,4-difluorocyclohexyl)(7-((R*)-1-((3S*,5S)-2-oxo-5-(trifluoromethyl)pyrrolidin-3-yl)propyl)imidazo[1,2-b]pyridazin-2-yl)methyl)-1,2,5-oxadiazole-3-carboxamide]: the pIC50 in assay [1] is 5.40 to 6.40; in assay [2] (Homo sapiens, Keratinocyte), 5.40 to 6.40.

In the case of `O=C(N[C@H](c1cn2ncc(C[C@H]3C[C@H](C(F)(F)F)NC3=O)cc2n1)C1CCC(F)(F)CC1)c1nonc1C1CC1` (relative stereo) [Example 69, 4-Cyclopropyl-N—((S)-(4,4-difluorocyclohexyl)(7-(((3S*,5R*)-2-oxo-5-(trifluoromethyl)pyrrolidin-3-yl)methyl)imidazo[1,2-b]pyridazin-2-yl)methyl)-1,2,5-oxadiazole-3-carboxamide], the pIC50 in assay [1] is 5.40 to 6.40; in assay [2] (Homo sapiens, Keratinocyte), 5.40 to 6.40.

As for `CC1(Cc2cnn3cc([C@@H](NC(=O)c4nonc4C4CC4)C4CCC(F)(F)CC4)nc3c2)CCCNC1=O` (single isomer, unassigned) [Example 27, 4-Cyclopropyl-N—((S)-(4,4-difluorocyclohexyl)(7-(((R*)-3-methyl-2-oxopiperidin-3-yl)methyl)imidazo[1,2-b]pyridazin-2-yl)methyl)-1,2,5-oxadiazole-3-carboxamide], the pIC50 in assay [1] is 5.40 to 6.40; in assay [2], under 5.40.

Turning to `O=C(N[C@H](c1cn2ncc([C@H](O)[C@@H]3C[C@@H](C(F)(F)F)NC3=O)cc2n1)C1CCC(F)(F)CC1)c1nonc1C1CC1` (relative stereo) [Example 75, 4-Cyclopropyl-N—((S)-(4,4-difluorocyclohexyl)(7-((R*)-hydroxy((3S*,5S*)-2-oxo-5-(trifluoromethyl)pyrrolidin-3-yl)methyl)imidazo[1,2-b]pyridazin-2-yl)methyl)-1,2,5-oxadiazole-3-carboxamide], the pIC50 is over 6.40 in assay [1] and over 6.40 in assay [2] (Homo sapiens, Keratinocyte).

Consider `O=C(N[C@H](c1cn2ncc([C@H](O)[C@H]3C[C@@H](C(F)(F)F)NC3=O)cc2n1)C1CCC(F)(F)CC1)c1nonc1C1CC1` (relative stereo) [Example 77, 4-Cyclopropyl-N—((S)-(4,4-difluorocyclohexyl)(7-((R*)-hydroxy((3R*,5S*)-2-oxo-5-(trifluoromethyl)pyrrolidin-3-yl)methyl)imidazo[1,2-b]pyridazin-2-yl)methyl)-1,2,5-oxadiazole-3-carboxamide], for which the pIC50 is under 5.40 in assay [1] and 5.40 to 6.40 in assay [2] (Homo sapiens, Keratinocyte).

Take `O=C(N[C@H](c1cn2ncc([C@@H](O)[C@@H]3C[C@@H](C(F)(F)F)NC3=O)cc2n1)C1CCC(F)(F)CC1)c1nonc1C1CC1` (relative stereo) [Example 72, 4-Cyclopropyl-N—((S)-(4,4-difluorocyclohexyl(7-((S*)-hydroxy((3S*,5S*)-2-oxo-5-(trifluoromethyl)pyrrolidin-3-yl)methyl)imidazo[1,2-b]pyridazin-2-yl)methyl)-1,2,5-oxadiazole-3-carboxamide]: the pIC50 in assay [1] was 5.40 to 6.40; in assay [2] (Homo sapiens, Keratinocyte) it was 5.40 to 6.40.

For the compound `CC(C)[C@H]1C[C@H](Cc2cnn3cc([C@@H](NC(=O)c4nonc4C4CC4)C4CCC(F)(F)CC4)nc3c2)C(=O)N1` (relative stereo) [Example 93, 4-Cyclopropyl-N—[(S)-(4,4-difluorocyclohexyl)-[7-[[(3S*,5R*)-5-isopropyl-2-oxo-pyrrolidin-3-yl]methyl]imidazo[1,2-b]pyridazin-2-yl]methyl]-1,2,5-oxadiazole-3-carboxamide], the pIC50 was 5.40 to 6.40 in assay [1] and 5.40 to 6.40 in assay [2] (Homo sapiens, Keratinocyte).

As to `CC(C)[C@H]1C[C@@H](Cc2cnn3cc([C@@H](NC(=O)c4nonc4C4CC4)C4CCC(F)(F)CC4)nc3c2)C(=O)N1` (relative stereo) [Example 94, 4-Cyclopropyl-N—[(S)-(4,4-difluorocyclohexyl)-[7-[[(3R*,5R*)-5-isopropyl-2-oxo-pyrrolidin-3-yl]methyl]imidazo[1,2-b]pyridazin-2-yl]methyl]-1,2,5-oxadiazole-3-carboxamide], the pIC50 was over 6.40 in assay [1] and over 6.40 in assay [2] (Homo sapiens, Keratinocyte).

Regarding `O=C(N[C@H](c1cn2ncc(C[C@H]3C(=O)NC[C@@H]3C(F)(F)F)cc2n1)C1CCC(F)(F)CC1)c1nonc1C1CC1` (relative stereo) [Example 101, 4-Cyclopropyl-N—[(S)-(4,4-difluorocyclohexyl)-[7-[[(3R*,4R*)-2-oxo-4-(trifluoromethyl)pyrrolidin-3-yl]methyl]imidazo[1,2-b]pyridazin-2-yl]methyl]-1,2,5-oxadiazole-3-carboxamide], the pIC50 was 5.40 to 6.40 in assay [1] and 5.40 to 6.40 in assay [2] (Homo sapiens, Keratinocyte).
